Test results reported in patent US6350731B1, “Platelet-derived growth factor analogues” (Trigen Limited, priority 1993, dated 2002).
Where no end group is shown, it is not given here. SMCC = N-(4-carboxy-cyclohexyl-methyl)-maleimide cross-linker

What was measured:
[1] = system: corresponding immunising peptide; assay: ELISA titre of polyclonal antisera; type: binding; conditions: rabbits immunised with peptide linked to thyroglobulin, FIGS. 3A, 3B
Procedure: (§1) Rabbits and mice were immunised with the peptides either in the free form mixed with Freund's adjuvant or conjugated to a carrier protein (Thyroglobulin or keyhole haemocyanin). Antisera were tested for antibody production to the peptides and PDGF using ELISA, dot blot assays and SDS-PAGE followed by Western blotting.

3T3 cells = assay: 125I-PDGF-BB binding inhibition assay, 3T3 cells; design: species or system murine; conditions: at the concentrations tested, FIG. 2A
Procedure: (§2) 3) Effect of PDGF Peptides on ^125I-PDGF-BB Binding to 3T3 Cells and Human Smooth Muscle Cells p PDGF-BB binding inhibition assay was performed as described by Engstrom et al. A murine fibroblast cell line 3T3.A31 and human aortic smooth muscle cells were used.

Swiss 3T3.A31 = assay: [3H]-thymidine uptake assay on fibroblast cells in culture; type: cell-based, murine; conditions: for stimulatory (mitogenic) effect, thymidine uptake: FIG. 1
Procedure: 2) Effect of PDGF Peptides on Fibroblast Cells in Culture The stimulatory or inhibitory effect of the peptides on the murine fibroblast cell line Swiss 3T3.A31 were investigated using the [^3H]-thymidine uptake assay as described by Raines & Ross. The peptides were tested for their ability to stimulate thymidine uptake in the cells in culture.

PDGF β-receptors = PDGF β-receptors (Homo sapiens, UniProt P09619); conditions: reference [6]; cited from earlier work
Chain of PDGF β-receptors (P09619 33-1106): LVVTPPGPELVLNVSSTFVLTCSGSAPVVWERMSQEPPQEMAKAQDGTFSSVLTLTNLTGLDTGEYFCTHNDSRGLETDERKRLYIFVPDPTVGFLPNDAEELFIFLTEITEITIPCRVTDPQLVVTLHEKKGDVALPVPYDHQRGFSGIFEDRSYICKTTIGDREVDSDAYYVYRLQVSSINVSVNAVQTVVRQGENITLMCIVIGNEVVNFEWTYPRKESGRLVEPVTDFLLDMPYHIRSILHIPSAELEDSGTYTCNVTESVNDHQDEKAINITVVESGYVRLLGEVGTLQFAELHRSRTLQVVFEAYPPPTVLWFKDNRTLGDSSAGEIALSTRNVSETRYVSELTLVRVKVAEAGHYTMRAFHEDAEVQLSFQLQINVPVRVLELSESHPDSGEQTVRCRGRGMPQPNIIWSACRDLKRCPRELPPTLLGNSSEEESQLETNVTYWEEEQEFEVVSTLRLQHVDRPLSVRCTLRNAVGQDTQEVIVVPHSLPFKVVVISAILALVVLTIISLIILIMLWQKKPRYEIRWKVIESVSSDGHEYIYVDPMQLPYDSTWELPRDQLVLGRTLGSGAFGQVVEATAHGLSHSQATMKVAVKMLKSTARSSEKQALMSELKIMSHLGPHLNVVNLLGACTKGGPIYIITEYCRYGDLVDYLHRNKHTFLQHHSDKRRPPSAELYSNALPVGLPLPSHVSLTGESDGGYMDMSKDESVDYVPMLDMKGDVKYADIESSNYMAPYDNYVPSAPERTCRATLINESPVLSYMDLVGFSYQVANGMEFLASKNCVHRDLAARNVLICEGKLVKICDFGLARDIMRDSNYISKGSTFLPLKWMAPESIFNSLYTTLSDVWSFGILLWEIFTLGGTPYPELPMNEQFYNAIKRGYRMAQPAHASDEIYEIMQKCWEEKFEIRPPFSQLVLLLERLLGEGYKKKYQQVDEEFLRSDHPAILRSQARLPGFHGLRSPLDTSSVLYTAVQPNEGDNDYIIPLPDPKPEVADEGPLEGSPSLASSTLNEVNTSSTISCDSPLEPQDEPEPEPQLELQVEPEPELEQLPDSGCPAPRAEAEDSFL

[2] = system: human smooth muscle cells; assay: 125I-PDGF-BB binding inhibition assay, human smooth muscle cells (peptides); conditions: FIG. 2B
Procedure: as §2

PDGF = target: T1, PDGF (Homo sapiens, UniProt P01127); assay: Western blot vs native PDGF; type: binding; conditions: polyclonal antisera
T1 construct: both chains undergo proteolytic cleavage at the N-termini during maturation; The B chain is also processed at the C-terminal end
T1 sequence (P01127 82-190 limits assumed): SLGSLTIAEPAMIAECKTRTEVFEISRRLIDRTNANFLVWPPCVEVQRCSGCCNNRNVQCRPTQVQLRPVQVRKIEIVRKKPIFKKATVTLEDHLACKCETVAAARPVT
Procedure: as §1

[3] = system: smooth muscle cells of injured arteries; conditions: administration of PDGF, rat, reference [19]; cited from earlier work
large bed sores = conditions: locally applied, reference [31]; cited from earlier work
PDGF receptor = conditions: cited from earlier work

Substance: AC-^73R-K-I-E-I-V-R-K-K^81-C (Ac-RKIEIVRKKC) [GP8]
- antibodies to the corresponding immunising peptide by ELISA [1]: high titre antibodies
- inhibition of binding of radiolabelled PDGF-BB to 3T3 cells (3T3 cells): modest inhibition
- stimulatory (mitogenic) effect, thymidine uptake (Swiss 3T3.A31): not as stimulatory as GP4

Substance: ANFLVW—EIVRKKP [literature peptide corresponding to PDGF-B chain residues 35-40 and 78-83]
- antagonist for PDGF (PDGF β-receptors): effective as an antagonist for PDGF

Substance: Ac-^25I-S-R-R-L-I-D-R-T-N-A-N-F-L-V-W-P-P-C^43-(SMCC)-^73R-K-I-E-I-V-R-K-K^81-C (Ac-ISRRLIDRTNANFLVWPPC(SMCC)RKIEIVRKKC; also: SMCC joins Cys43 (pos 19) to Arg73 (pos 20) in place of a peptide bond) [GP20]
- inhibition of labelled PDGF binding to human smooth muscle cells [2]: potent inhibitors

Substance: Ac-^25I-S-R-R-L-I-D-R-T-N-A-N-F-L^38 (Ac-ISRRLIDRTNANFL) [GP2]
- stimulatory (mitogenic) effect, thymidine uptake (Swiss 3T3.A31): low stimulatory effect

Substance: Ac-^25I-S-R-R-L-I-D-R-T-N-A-N-F-L^38-(G-G-G-G-G-G)-^73R-K-I-E-I-V-R-K-K^81-C [GP14]
- inhibition of labelled PDGF binding to human smooth muscle cells [2]: potent inhibitors

Substance: Ac-^25I-S-R-R-L-I-D-R-T-N-A-N-F-L^38-C (Ac-ISRRLIDRTNANFLC) [GP4]
- antibodies to the corresponding immunising peptide by ELISA [1]: high titre antibodies
- inhibition of binding of radiolabelled PDGF-BB to 3T3 cells (3T3 cells): modest inhibition
- antibodies produced by the peptide reacted with native PDGF (Western immunoblot) (PDGF): reacted with the native PDGF
- stimulatory (mitogenic) effect, thymidine uptake (Swiss 3T3.A31): highest stimulatory effect
- mitogenic effect upon reduction and alkylation of the C-terminal end cysteine residue (Swiss 3T3.A31; reduced and alkylated peptide): almost completely abolished

Substance: PDGF: 28-31 KD dimeric, highly basic glycoprotein, mitogen for connective tissue cells
- SMC migration from the media to the intima [3]: 20 fold
- SMC proliferation in the media [3]: 2-3 fold
- healing of large bed sores (large bed sores): stimulates the healing of large bed sores

Substance: ^73R-K-I-E-I-V-R-K-K-P-I-F-K-K-A-T-V^89 (RKIEIVRKKPIFKKATV) [GP21a]
- antibodies produced by the peptide reacted with native PDGF (Western immunoblot) (PDGF): reacted with the native PDGF

Substance: polylysin
- inhibition of PDGF binding to its receptor (PDGF receptor): inhibit PDGF binding to its receptor

Substance: protamine sulphate
- inhibition of PDGF binding to its receptor (PDGF receptor): inhibit PDGF binding to its receptor
